Assay results taken from the supplement of paper PMC12076712.
± gives the standard deviation of the averaged measurements.

Key:
Assay in all cases: pIC50, kinobeads binding competition
Details in all cases: cell material: Jurkat lysate
TAOK2 = biological target: T1, TAOK2 (UniProt Q9UL54)
T1 sequence (whole entry): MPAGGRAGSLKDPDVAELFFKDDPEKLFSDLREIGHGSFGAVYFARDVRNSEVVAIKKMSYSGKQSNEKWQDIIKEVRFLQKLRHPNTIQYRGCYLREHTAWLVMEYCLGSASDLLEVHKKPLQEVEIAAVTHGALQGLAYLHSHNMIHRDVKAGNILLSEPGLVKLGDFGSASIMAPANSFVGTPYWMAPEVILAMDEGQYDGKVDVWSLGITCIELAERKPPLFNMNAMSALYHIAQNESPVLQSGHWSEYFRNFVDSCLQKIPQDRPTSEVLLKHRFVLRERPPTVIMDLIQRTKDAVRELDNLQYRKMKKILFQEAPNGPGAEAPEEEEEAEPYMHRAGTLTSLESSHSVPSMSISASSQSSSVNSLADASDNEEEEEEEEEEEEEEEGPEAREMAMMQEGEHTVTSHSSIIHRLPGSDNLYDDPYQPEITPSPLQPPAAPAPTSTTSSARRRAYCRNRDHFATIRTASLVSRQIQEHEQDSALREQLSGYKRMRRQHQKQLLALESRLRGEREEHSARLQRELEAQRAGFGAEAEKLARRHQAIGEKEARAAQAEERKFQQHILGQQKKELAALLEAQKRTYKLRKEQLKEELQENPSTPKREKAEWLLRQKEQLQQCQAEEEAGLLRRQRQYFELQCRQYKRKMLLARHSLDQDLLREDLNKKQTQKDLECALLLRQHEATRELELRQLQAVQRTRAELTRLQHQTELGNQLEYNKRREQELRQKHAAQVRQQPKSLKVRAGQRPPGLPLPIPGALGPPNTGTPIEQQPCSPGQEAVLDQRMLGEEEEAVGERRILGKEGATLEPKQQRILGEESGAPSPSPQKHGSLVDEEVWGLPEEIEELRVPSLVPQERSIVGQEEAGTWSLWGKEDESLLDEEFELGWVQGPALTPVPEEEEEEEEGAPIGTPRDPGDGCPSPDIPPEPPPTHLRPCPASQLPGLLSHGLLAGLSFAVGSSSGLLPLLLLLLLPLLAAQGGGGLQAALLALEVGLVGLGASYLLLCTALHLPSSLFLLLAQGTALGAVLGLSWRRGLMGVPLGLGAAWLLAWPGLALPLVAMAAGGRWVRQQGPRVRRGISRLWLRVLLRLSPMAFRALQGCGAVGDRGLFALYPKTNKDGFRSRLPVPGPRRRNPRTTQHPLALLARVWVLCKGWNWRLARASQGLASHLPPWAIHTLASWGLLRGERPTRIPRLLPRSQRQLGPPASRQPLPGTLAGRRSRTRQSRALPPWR

PAK1 = PAK1 (UniProt Q13153)
PAK1, sequence (Q13153 whole entry): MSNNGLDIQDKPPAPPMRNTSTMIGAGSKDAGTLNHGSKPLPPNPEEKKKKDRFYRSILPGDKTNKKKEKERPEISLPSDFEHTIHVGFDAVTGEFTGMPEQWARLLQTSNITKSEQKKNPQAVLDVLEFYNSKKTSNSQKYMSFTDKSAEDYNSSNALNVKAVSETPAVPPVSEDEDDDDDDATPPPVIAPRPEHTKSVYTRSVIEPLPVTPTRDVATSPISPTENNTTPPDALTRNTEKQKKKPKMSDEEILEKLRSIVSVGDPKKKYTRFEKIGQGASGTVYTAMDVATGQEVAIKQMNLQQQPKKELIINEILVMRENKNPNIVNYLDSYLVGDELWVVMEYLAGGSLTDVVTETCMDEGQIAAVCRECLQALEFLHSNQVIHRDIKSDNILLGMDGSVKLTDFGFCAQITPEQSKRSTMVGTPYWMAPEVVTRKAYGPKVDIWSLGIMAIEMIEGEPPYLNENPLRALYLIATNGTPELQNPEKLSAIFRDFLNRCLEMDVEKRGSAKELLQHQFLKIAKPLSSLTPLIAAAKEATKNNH

TYK2 = TYK2 (UniProt P29597)
TYK2, sequence (P29597 whole entry): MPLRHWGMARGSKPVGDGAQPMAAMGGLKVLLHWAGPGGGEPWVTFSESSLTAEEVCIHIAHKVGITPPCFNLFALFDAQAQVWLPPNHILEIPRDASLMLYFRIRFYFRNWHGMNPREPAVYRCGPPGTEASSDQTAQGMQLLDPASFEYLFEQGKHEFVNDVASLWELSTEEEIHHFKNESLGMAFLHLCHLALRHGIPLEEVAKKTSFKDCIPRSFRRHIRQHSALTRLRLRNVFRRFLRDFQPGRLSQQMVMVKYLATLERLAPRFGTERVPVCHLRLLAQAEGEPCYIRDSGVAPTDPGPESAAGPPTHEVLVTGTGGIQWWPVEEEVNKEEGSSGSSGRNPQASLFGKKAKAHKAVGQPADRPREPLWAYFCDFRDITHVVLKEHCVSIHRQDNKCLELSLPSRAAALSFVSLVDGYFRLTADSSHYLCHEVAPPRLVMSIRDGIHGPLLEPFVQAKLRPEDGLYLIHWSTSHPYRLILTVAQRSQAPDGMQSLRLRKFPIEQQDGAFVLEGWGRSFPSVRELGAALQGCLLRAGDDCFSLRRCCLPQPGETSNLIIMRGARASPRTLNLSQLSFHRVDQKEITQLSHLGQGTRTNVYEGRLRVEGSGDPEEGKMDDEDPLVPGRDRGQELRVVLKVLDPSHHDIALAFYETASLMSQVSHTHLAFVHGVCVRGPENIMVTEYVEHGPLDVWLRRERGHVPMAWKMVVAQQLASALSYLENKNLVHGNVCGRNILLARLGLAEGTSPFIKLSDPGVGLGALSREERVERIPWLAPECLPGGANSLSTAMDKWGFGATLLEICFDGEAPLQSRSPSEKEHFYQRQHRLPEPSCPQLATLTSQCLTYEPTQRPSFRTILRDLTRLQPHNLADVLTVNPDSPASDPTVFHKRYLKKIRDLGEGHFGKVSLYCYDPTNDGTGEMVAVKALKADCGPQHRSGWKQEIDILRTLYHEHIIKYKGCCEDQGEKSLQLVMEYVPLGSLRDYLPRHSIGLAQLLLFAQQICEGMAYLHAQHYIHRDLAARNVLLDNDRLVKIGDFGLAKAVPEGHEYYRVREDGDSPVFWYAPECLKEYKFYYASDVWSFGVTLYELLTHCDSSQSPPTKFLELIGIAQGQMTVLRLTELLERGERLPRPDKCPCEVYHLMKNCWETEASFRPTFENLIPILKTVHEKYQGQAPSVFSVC

ARAF = ARAF (UniProt P10398)
ARAF, sequence (P10398 whole entry): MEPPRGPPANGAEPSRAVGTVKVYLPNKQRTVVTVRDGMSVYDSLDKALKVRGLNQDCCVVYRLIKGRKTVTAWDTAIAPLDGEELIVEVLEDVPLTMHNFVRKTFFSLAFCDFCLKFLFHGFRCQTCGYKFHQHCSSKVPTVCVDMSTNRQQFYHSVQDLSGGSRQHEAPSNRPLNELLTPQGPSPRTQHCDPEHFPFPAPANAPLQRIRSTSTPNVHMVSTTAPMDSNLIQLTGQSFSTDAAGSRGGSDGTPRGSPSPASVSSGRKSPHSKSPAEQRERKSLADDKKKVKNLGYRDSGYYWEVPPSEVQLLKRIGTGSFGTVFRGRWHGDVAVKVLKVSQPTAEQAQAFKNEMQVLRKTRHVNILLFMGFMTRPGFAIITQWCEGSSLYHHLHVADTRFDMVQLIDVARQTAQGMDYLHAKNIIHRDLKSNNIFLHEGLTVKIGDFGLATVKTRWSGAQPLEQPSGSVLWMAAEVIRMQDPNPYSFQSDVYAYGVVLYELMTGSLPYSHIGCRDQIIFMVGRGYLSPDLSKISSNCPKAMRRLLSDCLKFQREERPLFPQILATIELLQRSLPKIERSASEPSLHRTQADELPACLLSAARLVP

PRKD2 = biological target: T2, PRKD2 (UniProt Q9BZL6)
T2 sequence (whole entry): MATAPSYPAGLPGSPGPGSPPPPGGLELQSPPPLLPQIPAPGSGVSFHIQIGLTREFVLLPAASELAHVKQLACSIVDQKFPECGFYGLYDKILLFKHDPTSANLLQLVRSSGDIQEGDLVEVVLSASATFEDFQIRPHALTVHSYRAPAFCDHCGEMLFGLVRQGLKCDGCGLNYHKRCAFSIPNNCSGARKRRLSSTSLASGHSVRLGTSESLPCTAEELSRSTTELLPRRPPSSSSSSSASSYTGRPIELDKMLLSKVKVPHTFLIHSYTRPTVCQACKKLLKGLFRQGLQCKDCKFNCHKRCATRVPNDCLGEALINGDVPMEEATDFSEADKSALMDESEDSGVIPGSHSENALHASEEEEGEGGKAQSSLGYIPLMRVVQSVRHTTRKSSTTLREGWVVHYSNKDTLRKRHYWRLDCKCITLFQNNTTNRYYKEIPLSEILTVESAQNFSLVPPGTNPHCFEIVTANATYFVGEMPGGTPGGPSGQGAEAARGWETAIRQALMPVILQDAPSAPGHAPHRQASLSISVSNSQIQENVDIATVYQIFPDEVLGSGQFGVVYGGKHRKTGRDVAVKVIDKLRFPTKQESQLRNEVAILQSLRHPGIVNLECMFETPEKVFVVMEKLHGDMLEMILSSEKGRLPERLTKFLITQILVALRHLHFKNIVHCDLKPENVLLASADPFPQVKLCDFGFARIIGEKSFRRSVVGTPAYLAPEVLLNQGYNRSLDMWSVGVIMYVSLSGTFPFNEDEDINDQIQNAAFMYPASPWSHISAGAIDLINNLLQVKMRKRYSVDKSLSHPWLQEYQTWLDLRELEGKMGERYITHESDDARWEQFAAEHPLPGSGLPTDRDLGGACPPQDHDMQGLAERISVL

UniProt P25098 = biological target: T3, UniProt P25098
T3 sequence (whole entry): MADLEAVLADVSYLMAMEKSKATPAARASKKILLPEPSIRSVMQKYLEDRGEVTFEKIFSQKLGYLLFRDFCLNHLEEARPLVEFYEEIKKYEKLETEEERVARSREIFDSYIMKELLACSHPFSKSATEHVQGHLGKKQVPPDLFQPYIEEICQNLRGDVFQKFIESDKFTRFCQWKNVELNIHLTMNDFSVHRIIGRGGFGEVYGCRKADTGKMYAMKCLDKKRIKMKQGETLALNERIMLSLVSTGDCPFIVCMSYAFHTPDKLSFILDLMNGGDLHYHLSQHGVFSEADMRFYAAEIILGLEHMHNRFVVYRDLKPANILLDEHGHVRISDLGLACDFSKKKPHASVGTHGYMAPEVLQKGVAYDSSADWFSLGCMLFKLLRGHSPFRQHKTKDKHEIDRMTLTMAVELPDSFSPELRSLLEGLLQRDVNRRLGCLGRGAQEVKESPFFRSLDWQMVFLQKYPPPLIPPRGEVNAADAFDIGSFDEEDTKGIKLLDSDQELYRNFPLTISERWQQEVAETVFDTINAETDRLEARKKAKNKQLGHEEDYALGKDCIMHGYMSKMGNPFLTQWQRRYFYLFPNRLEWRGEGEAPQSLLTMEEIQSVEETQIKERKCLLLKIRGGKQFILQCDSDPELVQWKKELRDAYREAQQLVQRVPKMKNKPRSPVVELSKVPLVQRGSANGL

UniProt Q9NYL2 = biological target: UniProt Q9NYL2
UniProt Q9NYL2, sequence (Q9NYL2 whole entry, looked up): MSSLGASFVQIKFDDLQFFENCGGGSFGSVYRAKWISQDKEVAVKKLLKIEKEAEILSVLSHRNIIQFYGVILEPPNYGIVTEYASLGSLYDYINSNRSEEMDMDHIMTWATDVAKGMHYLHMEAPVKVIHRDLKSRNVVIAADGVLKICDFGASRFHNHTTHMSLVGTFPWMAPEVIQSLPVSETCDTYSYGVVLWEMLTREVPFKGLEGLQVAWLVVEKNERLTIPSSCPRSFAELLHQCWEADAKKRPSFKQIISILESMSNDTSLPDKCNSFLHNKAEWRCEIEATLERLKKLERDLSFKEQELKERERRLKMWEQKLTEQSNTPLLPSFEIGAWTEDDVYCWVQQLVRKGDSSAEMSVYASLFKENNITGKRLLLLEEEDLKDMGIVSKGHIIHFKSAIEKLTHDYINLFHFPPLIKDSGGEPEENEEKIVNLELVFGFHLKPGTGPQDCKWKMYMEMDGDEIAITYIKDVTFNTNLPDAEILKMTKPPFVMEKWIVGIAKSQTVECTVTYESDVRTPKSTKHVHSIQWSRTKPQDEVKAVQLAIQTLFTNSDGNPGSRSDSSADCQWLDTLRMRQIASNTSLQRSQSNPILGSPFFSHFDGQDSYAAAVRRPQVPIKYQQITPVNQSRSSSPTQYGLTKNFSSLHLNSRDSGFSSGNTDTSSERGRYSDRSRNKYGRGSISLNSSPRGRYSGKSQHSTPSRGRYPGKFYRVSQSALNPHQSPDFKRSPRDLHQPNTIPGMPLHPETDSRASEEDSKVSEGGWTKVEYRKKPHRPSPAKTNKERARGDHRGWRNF

UniProt Q9HCP0 = biological target: UniProt Q9HCP0
UniProt Q9HCP0, sequence (Q9HCP0 whole entry, looked up): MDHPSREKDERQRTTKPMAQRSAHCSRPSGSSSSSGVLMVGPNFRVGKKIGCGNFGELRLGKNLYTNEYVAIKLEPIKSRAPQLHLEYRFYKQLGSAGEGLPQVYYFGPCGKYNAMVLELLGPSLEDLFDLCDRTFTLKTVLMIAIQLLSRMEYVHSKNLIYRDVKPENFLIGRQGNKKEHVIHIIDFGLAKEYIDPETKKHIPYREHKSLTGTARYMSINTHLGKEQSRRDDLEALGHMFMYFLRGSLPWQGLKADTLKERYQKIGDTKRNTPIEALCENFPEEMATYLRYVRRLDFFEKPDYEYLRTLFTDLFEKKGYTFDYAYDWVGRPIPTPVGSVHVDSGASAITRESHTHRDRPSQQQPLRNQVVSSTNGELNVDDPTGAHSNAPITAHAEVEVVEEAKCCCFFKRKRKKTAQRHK

pIC50 (TAOK2): 5.6 ± 0.085 | pIC50 (PAK1): < 4.52 | pIC50 (TYK2): < 4.52 | pIC50 (ARAF): < 4.52 | pIC50 (PRKD2): < 4.52 | pIC50 (UniProt P25098): < 4.52 | pIC50 (UniProt Q9NYL2): < 4.52 | pIC50 (UniProt Q9HCP0): < 4.52
SMILES: CCc1cnn2c(NCc3ccc[n+]([O-])c3)cc(N3CCCC[C@H]3CCO)nc12 [dinaciclib]
